The values below come from patent US20250152585A1, “PHARMACEUTICAL COMPOUND” (Duke Street Bio Limited, priority 2022, published 2025).

The structures appear in SMILES notation.

One experiment deals with T1, full length N-terminally FLAG-tagged PARP1 (Homo sapiens, UniProt P09874). Description: PARP1 probe displacement HTRF assay. The conditions noted are these: PARP1 over PARP2, ratio Kd (PARP2)/Kd (PARP1), probe displacement HTRF. A general note: Time-resolved FRET reads energy transfer from a long-lived donor to a nearby acceptor.
T1 sequence (P09874 whole entry): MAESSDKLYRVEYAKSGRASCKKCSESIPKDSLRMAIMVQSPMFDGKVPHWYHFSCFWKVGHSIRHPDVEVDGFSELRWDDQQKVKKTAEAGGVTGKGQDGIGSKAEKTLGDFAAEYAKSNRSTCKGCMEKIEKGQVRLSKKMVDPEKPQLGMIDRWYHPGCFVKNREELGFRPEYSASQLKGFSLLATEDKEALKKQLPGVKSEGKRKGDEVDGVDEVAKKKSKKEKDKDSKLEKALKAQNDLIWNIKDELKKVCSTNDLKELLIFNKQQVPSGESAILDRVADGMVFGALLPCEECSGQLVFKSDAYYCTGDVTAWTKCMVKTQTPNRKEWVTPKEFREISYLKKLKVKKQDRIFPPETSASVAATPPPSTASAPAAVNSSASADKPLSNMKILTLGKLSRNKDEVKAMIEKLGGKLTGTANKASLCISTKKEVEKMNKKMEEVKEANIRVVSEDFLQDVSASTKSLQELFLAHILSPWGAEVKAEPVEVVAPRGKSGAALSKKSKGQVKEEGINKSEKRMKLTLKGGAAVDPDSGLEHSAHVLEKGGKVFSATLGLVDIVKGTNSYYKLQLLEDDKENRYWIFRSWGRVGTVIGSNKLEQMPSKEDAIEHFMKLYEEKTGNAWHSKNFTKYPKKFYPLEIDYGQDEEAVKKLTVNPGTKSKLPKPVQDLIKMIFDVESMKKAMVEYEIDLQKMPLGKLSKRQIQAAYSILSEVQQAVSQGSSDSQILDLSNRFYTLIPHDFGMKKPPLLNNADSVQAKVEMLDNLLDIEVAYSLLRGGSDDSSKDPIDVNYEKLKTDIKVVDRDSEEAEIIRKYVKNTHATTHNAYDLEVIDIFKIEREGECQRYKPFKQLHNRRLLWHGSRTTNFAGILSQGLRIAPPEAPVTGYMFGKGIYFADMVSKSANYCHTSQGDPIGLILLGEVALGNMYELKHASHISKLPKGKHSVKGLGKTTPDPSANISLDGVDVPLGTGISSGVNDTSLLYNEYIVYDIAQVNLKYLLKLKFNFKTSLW
As for `O=C(NCC(F)F)c1ccc(N2CCC(N3CCC(c4cc5ccc(F)cc5c(=O)[nH]4)C3)CC2)c(F)n1` (single isomer, unassigned) [Compound 399b], the Selectivity entry is reported as “+ (+ indicates a value of 10 to less than 50)”.
On the same count and under the same terms, in the case of `CNC(=O)c1ccc(N2CCC(N3CCC(c4[nH]c(=O)c5cc(F)ccc5c4F)C3)CC2)cn1` (single isomer, unassigned) [Compound 401a] it was “+++ (+++ indicate a value of at least 100)”; in that of `CNC(=O)c1ccc(N2CCC(N3CCC(c4[nH]c(=O)c5cc(F)ccc5c4F)C3)CC2)cn1` (single isomer, unassigned) [Compound 401b], “+ (+ indicates a value of 10 to less than 50)”.
Still for that read-out and setting: the same measure for `CNC(=O)c1ccc(N2CCC(N3CCC(c4[nH]c(=O)c5c(F)cccc5c4F)C3)CC2)c(F)n1` (single isomer, unassigned) [Compound 402a]: “+++ (+++ indicate a value of at least 100)”; for `CNC(=O)c1ccc(N2CCC(N3CCC(c4[nH]c(=O)c5c(F)cccc5c4F)C3)CC2)c(F)n1` (single isomer, unassigned) [Compound 402b]: “+++ (+++ indicate a value of at least 100)”; for `CNC(=O)c1ccc(N2CCC(N3CCC(c4[nH]c(=O)c5ccccc5c4C(F)(F)F)C3)CC2)cn1` (single isomer, unassigned) [Compound 404a]: “+++ (+++ indicate a value of at least 100)”.
The same measure, in the same setting: the same measure for `CNC(=O)c1ccc(N2CCC(N3CCC(c4[nH]c(=O)c5ccccc5c4C(F)(F)F)C3)CC2)cn1` (single isomer, unassigned) [Compound 404b]: “+++ (+++ indicate a value of at least 100)”; for `CNC(=O)c1ccc(N2CCC(N3CCC(c4cc5c(c(C(F)(F)F)nn5C)c(=O)[nH]4)C3)CC2)c(F)n1` (single isomer, unassigned) [Compound 407a]: “++ (++ indicates a value of 50 to less than 100)”; for `CNC(=O)c1ccc(N2CCC(N3CCC(c4cc5c(c(C(F)(F)F)nn5C)c(=O)[nH]4)C3)CC2)c(F)n1` (single isomer, unassigned) [Compound 407b]: “+ (+ indicates a value of 10 to less than 50)”.
Turning to `CCc1ccc(C2CCN(C3CCN(c4cnc(C(=O)NC5CC5)c(F)c4)CC3)C2)[nH]c1=O` (single isomer, unassigned) [Compound 408a], the Selectivity result is recorded as “+++ (+++ indicate a value of at least 100)”.
Same read-out and setting: the same measure for `CCc1ccc(C2CCN(C3CCN(c4cnc(C(=O)NC5CC5)c(F)c4)CC3)C2)[nH]c1=O` (single isomer, unassigned) [Compound 408b]: “+ (+ indicates a value of 10 to less than 50)”.

Still in this experiment, the particulars now being: read-out: PARP1 HTRF; binned Kd, probe displacement HTRF.
Consider `O=C(NCC(F)F)c1ccc(N2CCC(N3CCC(c4cc5ccc(F)cc5c(=O)[nH]4)C3)CC2)c(F)n1` (single isomer, unassigned) [Compound 399b], for which the Kd is less than 10 nM.
For the molecule `CNC(=O)c1ccc(N2CCC(N3CCC(c4[nH]c(=O)c5cc(F)ccc5c4F)C3)CC2)cn1` (single isomer, unassigned) [Compound 401a], the Kd was less than 10 nM.
Consider `CNC(=O)c1ccc(N2CCC(N3CCC(c4[nH]c(=O)c5cc(F)ccc5c4F)C3)CC2)cn1` (single isomer, unassigned) [Compound 401b], for which the Kd is less than 10 nM.
Take `CNC(=O)c1ccc(N2CCC(N3CCC(c4[nH]c(=O)c5c(F)cccc5c4F)C3)CC2)c(F)n1` (single isomer, unassigned) [Compound 402a]: the Kd was less than 10 nM.
Same read-out and setting: in the case of `CNC(=O)c1ccc(N2CCC(N3CCC(c4[nH]c(=O)c5c(F)cccc5c4F)C3)CC2)c(F)n1` (single isomer, unassigned) [Compound 402b] it was less than 10 nM; in that of `CNC(=O)c1ccc(N2CCC(N3CCC(c4[nH]c(=O)c5ccccc5c4C(F)(F)F)C3)CC2)cn1` (single isomer, unassigned) [Compound 404a], 10 to 100 nM; in that of `CNC(=O)c1ccc(N2CCC(N3CCC(c4[nH]c(=O)c5ccccc5c4C(F)(F)F)C3)CC2)cn1` (single isomer, unassigned) [Compound 404b], less than 10 nM.
For `CNC(=O)c1ccc(N2CCC(N3CCC(c4cc5c(c(C(F)(F)F)nn5C)c(=O)[nH]4)C3)CC2)c(F)n1` (single isomer, unassigned) [Compound 407a], the Kd is less than 10 nM.
The same measure, in the same setting: the same measure for `CNC(=O)c1ccc(N2CCC(N3CCC(c4cc5c(c(C(F)(F)F)nn5C)c(=O)[nH]4)C3)CC2)c(F)n1` (single isomer, unassigned) [Compound 407b]: less than 10 nM; for `CCc1ccc(C2CCN(C3CCN(c4cnc(C(=O)NC5CC5)c(F)c4)CC3)C2)[nH]c1=O` (single isomer, unassigned) [Compound 408a]: less than 10 nM.
Take `CCc1ccc(C2CCN(C3CCN(c4cnc(C(=O)NC5CC5)c(F)c4)CC3)C2)[nH]c1=O` (single isomer, unassigned) [Compound 408b]: the Kd fell in the range of 10 to 100 nM.

The next experiment deals with T1, full length N-terminally FLAG-tagged PARP1. Description: PARP1 biochemical DELFIA assay (auto-PARylation). The conditions noted are these: binned IC50, biochemical auto-PARylation assay. Details: recombinant full length human N-terminally FLAG-tagged PARP1.
On to `O=C(NCC(F)F)c1ccc(N2CCC(N3CCC(c4cc5ccc(F)cc5c(=O)[nH]4)C3)CC2)c(F)n1` (single isomer, unassigned) [Compound 399b], for which the IC50 (in general, the concentration at which inhibition is half-maximal) was less than 10 nM.
The same measure, in the same setting: in the case of `CNC(=O)c1ccc(N2CCC(N3CCC(c4[nH]c(=O)c5cc(F)ccc5c4F)C3)CC2)cn1` (single isomer, unassigned) [Compound 401a] it was less than 10 nM; in that of `CNC(=O)c1ccc(N2CCC(N3CCC(c4[nH]c(=O)c5cc(F)ccc5c4F)C3)CC2)cn1` (single isomer, unassigned) [Compound 401b], less than 10 nM.
As to `CNC(=O)c1ccc(N2CCC(N3CCC(c4[nH]c(=O)c5c(F)cccc5c4F)C3)CC2)c(F)n1` (single isomer, unassigned) [Compound 402a], the IC50 is less than 10 nM.
Still for that read-out and setting: the same measure for `CNC(=O)c1ccc(N2CCC(N3CCC(c4[nH]c(=O)c5c(F)cccc5c4F)C3)CC2)c(F)n1` (single isomer, unassigned) [Compound 402b]: less than 10 nM; for `CNC(=O)c1ccc(N2CCC(N3CCC(c4[nH]c(=O)c5ccccc5c4C(F)(F)F)C3)CC2)cn1` (single isomer, unassigned) [Compound 404a]: 10 to 100 nM; for `CNC(=O)c1ccc(N2CCC(N3CCC(c4[nH]c(=O)c5ccccc5c4C(F)(F)F)C3)CC2)cn1` (single isomer, unassigned) [Compound 404b]: less than 10 nM.
With `CNC(=O)c1ccc(N2CCC(N3CCC(c4cc5c(c(C(F)(F)F)nn5C)c(=O)[nH]4)C3)CC2)c(F)n1` (single isomer, unassigned) [Compound 407a], the concentration for half-maximal inhibition (IC50) is 10 to 100 nM.
Same read-out and setting: in the case of `CNC(=O)c1ccc(N2CCC(N3CCC(c4cc5c(c(C(F)(F)F)nn5C)c(=O)[nH]4)C3)CC2)c(F)n1` (single isomer, unassigned) [Compound 407b] it was less than 10 nM; in that of `CCc1ccc(C2CCN(C3CCN(c4cnc(C(=O)NC5CC5)c(F)c4)CC3)C2)[nH]c1=O` (single isomer, unassigned) [Compound 408a], less than 10 nM; in that of `CCc1ccc(C2CCN(C3CCN(c4cnc(C(=O)NC5CC5)c(F)c4)CC3)C2)[nH]c1=O` (single isomer, unassigned) [Compound 408b], 10 to 100 nM.

Another experiment deals with T2, N-terminally FLAG-tagged PARP2 (amino acids 1-583) (Homo sapiens, UniProt Q9UGN5).
T2 construct: N-terminally FLAG-tagged PARP2 (amino acids 1-583)
T2 sequence (Q9UGN5 whole entry, the tested form may be a part): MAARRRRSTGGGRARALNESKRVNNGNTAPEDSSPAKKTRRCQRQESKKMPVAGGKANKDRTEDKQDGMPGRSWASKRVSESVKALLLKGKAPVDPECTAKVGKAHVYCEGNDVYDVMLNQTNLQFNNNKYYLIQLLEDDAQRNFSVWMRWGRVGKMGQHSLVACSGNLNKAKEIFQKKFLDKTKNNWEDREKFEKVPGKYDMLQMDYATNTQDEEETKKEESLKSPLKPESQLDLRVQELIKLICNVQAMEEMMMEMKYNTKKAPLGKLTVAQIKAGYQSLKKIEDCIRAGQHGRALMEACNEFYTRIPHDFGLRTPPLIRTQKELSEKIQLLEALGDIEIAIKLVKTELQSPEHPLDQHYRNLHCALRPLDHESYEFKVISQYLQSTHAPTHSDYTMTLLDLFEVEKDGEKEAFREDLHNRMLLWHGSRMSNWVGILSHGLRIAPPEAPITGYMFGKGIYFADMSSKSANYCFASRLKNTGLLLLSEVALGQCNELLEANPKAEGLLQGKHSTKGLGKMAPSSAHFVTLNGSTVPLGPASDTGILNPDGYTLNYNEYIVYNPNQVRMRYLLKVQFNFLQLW
Put plainly: PARP2 probe displacement HTRF assay. Type of experiment: binding. The conditions noted are these: binned Kd, probe displacement HTRF. The method, then:
Data analysis was performed identical as for PARP1.
In turn, `O=C(NCC(F)F)c1ccc(N2CCC(N3CCC(c4cc5ccc(F)cc5c(=O)[nH]4)C3)CC2)c(F)n1` (single isomer, unassigned) [Compound 399b] came in with a Kd of 10 to 100 nM.
`CNC(=O)c1ccc(N2CCC(N3CCC(c4[nH]c(=O)c5cc(F)ccc5c4F)C3)CC2)cn1` (single isomer, unassigned) [Compound 401a]: the Kd is 10 to 100 nM.
Same read-out and setting: in the case of `CNC(=O)c1ccc(N2CCC(N3CCC(c4[nH]c(=O)c5cc(F)ccc5c4F)C3)CC2)cn1` (single isomer, unassigned) [Compound 401b] it was 10 to 100 nM; in that of `CNC(=O)c1ccc(N2CCC(N3CCC(c4[nH]c(=O)c5c(F)cccc5c4F)C3)CC2)c(F)n1` (single isomer, unassigned) [Compound 402a], 100 to 1000 nM; in that of `CNC(=O)c1ccc(N2CCC(N3CCC(c4[nH]c(=O)c5c(F)cccc5c4F)C3)CC2)c(F)n1` (single isomer, unassigned) [Compound 402b], 10 to 100 nM.
On the same count and under the same terms, in the case of `CNC(=O)c1ccc(N2CCC(N3CCC(c4[nH]c(=O)c5ccccc5c4C(F)(F)F)C3)CC2)cn1` (single isomer, unassigned) [Compound 404a] it was 1000 to 10000 nM.
Still for that read-out and setting: the same measure for `CNC(=O)c1ccc(N2CCC(N3CCC(c4[nH]c(=O)c5ccccc5c4C(F)(F)F)C3)CC2)cn1` (single isomer, unassigned) [Compound 404b]: 1000 to 10000 nM.
The molecule `CNC(=O)c1ccc(N2CCC(N3CCC(c4cc5c(c(C(F)(F)F)nn5C)c(=O)[nH]4)C3)CC2)c(F)n1` (single isomer, unassigned) [Compound 407a] came in with a Kd of 100 to 1000 nM.
The molecule `CNC(=O)c1ccc(N2CCC(N3CCC(c4cc5c(c(C(F)(F)F)nn5C)c(=O)[nH]4)C3)CC2)c(F)n1` (single isomer, unassigned) [Compound 407b] had a Kd of less than 10 nM.
On the same count and under the same terms, in the case of `CCc1ccc(C2CCN(C3CCN(c4cnc(C(=O)NC5CC5)c(F)c4)CC3)C2)[nH]c1=O` (single isomer, unassigned) [Compound 408a] it was 100 to 1000 nM; in that of `CCc1ccc(C2CCN(C3CCN(c4cnc(C(=O)NC5CC5)c(F)c4)CC3)C2)[nH]c1=O` (single isomer, unassigned) [Compound 408b], 1000 to 10000 nM.
